From patent publication US20210254056A1, “IDENTIFICATION AND TARGETED MODULATION OF GENE SIGNALING NETWORKS” (CAMP4 THERAPEUTICS CORPORATION, priority 2017, published 2021)

Tested on: hepatocytes
Test: RNA-seq of hepatocytes treated with Phase III failure compounds
Details: for significant modulation of expression of disease genes: q≤0.05, genes in the value or listed in the block; for significant changes in gene expression: RNA-seq of Table 36, FPKM≥0.5, log 2(fold-change)≥1, q-value≤0.05; for significant modulation of expression of any of the genes analyzed: p≤0.05
Procedure: RNA-seq was performed to determine the effects of the compounds on hepatocytes.
Significance was determined by the criteria of FPKM≥0.5, a log 2(fold-change)≥1, and a […].

Cn1cc(C2=C(c3cn(C4CCN(Cc5ccccn5)CC4)c4ccccc34)C(=O)NC2=O)c2ccccc21 [Enzastaurin]
RNA-seq results, CYP2B6 expression: 0.42
RNA-seq results, CYP2C19 expression: 0.47
RNA-seq results, CYP2D6 expression: −0.28
RNA-seq results, CYP3A4 expression: 0.22
RNA-seq results, CYP7B1 expression: 0.06
RNA-seq results, CYP39A1 expression: −1.39
RNA-seq results: CYP2B6 expression: 0.34
RNA-seq results: CYP2C19 expression: 1.62
RNA-seq results: CYP2D6 expression: −0.62
RNA-seq results: CYP3A4 expression: 0.01
RNA-seq results: CYP7B1 expression: 0.26
RNA-seq results: CYP39A1 expression: −0.08
significant modulation of expression of disease genes (RNA-seq, hepatocytes): significantly (q≤0.05) modulate expression
effect on disease gene expression (RNA-seq, hepatocytes): effect on expression of too many disease genes
RNA-seq results: A1BG expression (gene A1BG, hepatocytes): 0.13
RNA-seq results: AGTR1 expression (gene AGTR1, hepatocytes): −0.76
RNA-seq results: AGXT expression (gene AGXT, hepatocytes): −0.27
RNA-seq results: AHI1 expression (gene AHI1, hepatocytes): 0.25
RNA-seq results: AMPD3 expression (gene AMPD3, hepatocytes): −0.35
RNA-seq results: AMT expression (gene AMT, hepatocytes): −0.42
RNA-seq results: ANGPTL3 expression (gene ANGPTL3, hepatocytes): −2.31
RNA-seq results: ANKS4B expression (gene ANKS4B, hepatocytes): −0.71
RNA-seq results: ANKS6 expression (gene ANKS6, hepatocytes): 0.10
RNA-seq results: ANPEP expression (gene ANPEP, hepatocytes): −0.52
RNA-seq results: AOC2 expression (gene AOC2, hepatocytes): 0.11
RNA-seq results: APOA2 expression (gene APOA2, hepatocytes): −0.48
RNA-seq results: APOA5 expression (gene APOA5, hepatocytes): −0.04
RNA-seq results: APOB expression (gene APOB, hepatocytes): −0.19
RNA-seq results: COG5 expression (gene COG5, hepatocytes): 0.35
RNA-seq results: COG6 expression (gene COG6, hepatocytes): 0.23
RNA-seq results: COL1A1 expression (gene COL1A1, hepatocytes): 0.34
RNA-seq results: COX6A1 expression (gene COX6A1, hepatocytes): −1.30
RNA-seq results: CP expression (gene CP, hepatocytes): 0.80
RNA-seq results: CPS1 expression (gene CPS1, hepatocytes): 0.69
RNA-seq results: CPT1A expression (gene CPT1A, hepatocytes): −0.10
RNA-seq results: CPT2 expression (gene CPT2, hepatocytes): −0.15
RNA-seq results: CROT expression (gene CROT, hepatocytes): −0.21
RNA-seq results: CSPP1 expression (gene CSPP1, hepatocytes): −0.22
RNA-seq results: CTC1 expression (gene CTC1, hepatocytes): 0.46
RNA-seq results: CTDSP2 expression (gene CTDSP2, hepatocytes): 0.44
RNA-seq results: CTH expression (gene CTH, hepatocytes): −0.17
RNA-seq results: CTNS expression (gene CTNS, hepatocytes): 0.16
RNA-seq results: CTSF expression (gene CTSF, hepatocytes): −0.63
RNA-seq results: CTSK expression (gene CTSK, hepatocytes): 0.47
RNA-seq results: CYB5A expression (gene CYB5A, hepatocytes): −0.56
RNA-seq results: CYB5R3 expression (gene CYB5R3, hepatocytes): 0.02
RNA-seq results: CYP27A1 expression (gene CYP27A1, hepatocytes): −0.43
RNA-seq results: DAO expression (gene DAO, hepatocytes): −0.01
RNA-seq results: DBT expression (gene DBT, hepatocytes): 0.28
RNA-seq results: DCDC2 expression (gene DCDC2, hepatocytes): 0.20
RNA-seq results: DCXR expression (gene DCXR, hepatocytes): −1.16
RNA-seq results: FABP1 expression (gene FABP1, hepatocytes): −0.93
RNA-seq results: FADD expression (gene FADD, hepatocytes): −0.53
RNA-seq results: FAM111A expression (gene FAM111A, hepatocytes): 0.49
RNA-seq results: FAM111B expression (gene FAM111B, hepatocytes): 0.47
RNA-seq results: FAN1 expression (gene FAN1, hepatocytes): 0.43
RNA-seq results: FARS2 expression (gene FARS2, hepatocytes): −0.55
RNA-seq results: FASLG expression (gene FASLG, hepatocytes): 0.35
RNA-seq results: FGA expression (gene FGA, hepatocytes): −0.10
RNA-seq results: FGD1 expression (gene FGD1, hepatocytes): 0.29
RNA-seq results: FGFR2 expression (gene FGFR2, hepatocytes): 0.75
RNA-seq results: FIG4 expression (gene FIG4, hepatocytes): 0.08
RNA-seq results: FIS1 expression (gene FIS1, hepatocytes): −1.07
RNA-seq results: FTCD expression (gene FTCD, hepatocytes): −0.35
RNA-seq results: FTH1 expression (gene FTH1, hepatocytes): −0.84
RNA-seq results: FUCA1 expression (gene FUCA1, hepatocytes): −0.37
RNA-seq results: FXN expression (gene FXN, hepatocytes): −0.10
RNA-seq results: G6PC3 expression (gene G6PC3, hepatocytes): −0.60
RNA-seq results: G6PC expression (gene G6PC, hepatocytes): 0.69
RNA-seq results: G6PD expression (gene G6PD, hepatocytes): −0.23
RNA-seq results: GALK1 expression (gene GALK1, hepatocytes): −0.94
RNA-seq results: GALK2 expression (gene GALK2, hepatocytes): −0.51
RNA-seq results: GATA6 expression (gene GATA6, hepatocytes): −0.26
RNA-seq results: GATM expression (gene GATM, hepatocytes): 0.12
RNA-seq results: GBA expression (gene GBA, hepatocytes): 0.04
RNA-seq results: GBE1 expression (gene GBE1, hepatocytes): −0.07
RNA-seq results: GCH1 expression (gene GCH1, hepatocytes): −0.12
RNA-seq results: GCKR expression (gene GCKR, hepatocytes): 0.17
RNA-seq results: GCLC expression (gene GCLC, hepatocytes): 0.11
RNA-seq results: GGCX expression (gene GGCX, hepatocytes): 0.17
RNA-seq results: GHR expression (gene GHR, hepatocytes): 0.73
RNA-seq results: GJB2 expression (gene GJB2, hepatocytes): −0.07
RNA-seq results: GOSH expression (gene GOSH, hepatocytes): −1.35
RNA-seq results: RRM2B (gene RRM2B, hepatocytes): −0.08
RNA-seq results: RSAD1 (gene RSAD1, hepatocytes): 0.26
RNA-seq results: SAMHD1 (gene SAMHD1, hepatocytes): −0.34
RNA-seq results: SC5D (gene SC5D, hepatocytes): 0.23
RNA-seq results: SCARB1 (gene SCARB1, hepatocytes): −0.02
RNA-seq results: SCN9A (gene SCN9A, hepatocytes): −1.60
RNA-seq results: SDCCAG8 (gene SDCCAG8, hepatocytes): 0.08
RNA-seq results: SEPN1 (gene SEPN1, hepatocytes): −0.51
RNA-seq results: SERAC1 (gene SERAC1, hepatocytes): −0.28
RNA-seq results: SERPINA1 (gene SERPINA1, hepatocytes): 0.21
RNA-seq results: SERPING1 (gene SERPING1, hepatocytes): 0.06
RNA-seq results: SERPINI1 (gene SERPINI1, hepatocytes): −0.50
RNA-seq results: SETBP1 (gene SETBP1, hepatocytes): 0.08
RNA-seq results: SFXN4 (gene SFXN4, hepatocytes): 0.11
RNA-seq results: SLC10A1 (gene SLC10A1, hepatocytes): −0.60
RNA-seq results: SLC10A3 (gene SLC10A3, hepatocytes): 0.28
RNA-seq results: SLC10A5 (gene SLC10A5, hepatocytes): −0.77
RNA-seq results: SLC10A7 (gene SLC10A7, hepatocytes): −0.46
RNA-seq results: SLC11A2 (gene SLC11A2, hepatocytes): 0.16
RNA-seq results: SLC19A2 (gene SLC19A2, hepatocytes): 0.28
RNA-seq results: SLC19A3 (gene SLC19A3, hepatocytes): −0.67
RNA-seq results: SLC22A1 (gene SLC22A1, hepatocytes): −0.34
RNA-seq results: SLC22A5 (gene SLC22A5, hepatocytes): 0.26
RNA-seq results: SLC25A1 (gene SLC25A1, hepatocytes): −0.20
RNA-seq results: SLC25A10 (gene SLC25A10, hepatocytes): −0.01
RNA-seq results: SLC25A12 (gene SLC25A12, hepatocytes): 0.10
RNA-seq results: SLC25A13 (gene SLC25A13, hepatocytes): 0.11
RNA-seq results: SLC25A15 (gene SLC25A15, hepatocytes): −0.31
RNA-seq results: SLC25A19 (gene SLC25A19, hepatocytes): −0.01
RNA-seq results: SLC25A20 (gene SLC25A20, hepatocytes): −0.96
RNA-seq results: SLC25A32 (gene SLC25A32, hepatocytes): 0.18

Cn1cc(C2=C(c3cn(C4CCN(Cc5ccccn5)CC4)c4ccccc34)C(=O)NC2=O)c2ccccc21 [Enzstaurin]
Number (#) of genes having significantly changed expression: 971

Cc1cc(C)c2c(c1)[C@@H](N(Cc1cc(C(F)(F)F)cc(C(F)(F)F)c1)c1nnn(C)n1)CCCN2C[C@H]1CC[C@H](C(=O)O)CC1 [Evacetrapib]
significant changes in gene expression: not observed to cause any significant changes in gene expression
significant modulation of expression of any of the genes analyzed (RNA-seq, hepatocytes): not observed to significantly modulate expression

COc1cccc2c1C(=O)c1c(O)c3c(c(O)c1C2=O)C[C@@](O)(/C(CO)=N/NC(=O)CCCCCN1C(=O)C=CC1=O)C[C@@H]3O[C@H]1C[C@H](N)[C@H](O)[C@H](C)O1 [INNO-206 (aldoxorubicin), aldoxorubicin]
Number (#) of genes having significantly changed expression: 1944
significant modulation of expression of disease genes (RNA-seq, hepatocytes): significantly (q≤0.05) modulate expression
B2M expression, RNA-seq result (gene B2M, hepatocytes): 0.38
B9D2 expression, RNA-seq result (gene B9D2, hepatocytes): 0.04
BAAT expression, RNA-seq result (gene BAAT, hepatocytes): −1.32
BBOX1 expression, RNA-seq result (gene BBOX1, hepatocytes): −1.19
BBS10 expression, RNA-seq result (gene BBS10, hepatocytes): −0.06
BCHE expression, RNA-seq result (gene BCHE, hepatocytes): −0.69
BCKDHB expression, RNA-seq result (gene BCKDHB, hepatocytes): 0
BCKDK expression, RNA-seq result (gene BCKDK, hepatocytes): −0.91
BCO1 expression, RNA-seq result (gene BCO1, hepatocytes): −0.28
BCR expression, RNA-seq result (gene BCR, hepatocytes): −0.83
BLNK expression, RNA-seq result (gene BLNK, hepatocytes): 1.32
BLOC1S3 expression, RNA-seq result (gene BLOC1S3, hepatocytes): −0.26
BMPR1A expression, RNA-seq result (gene BMPR1A, hepatocytes): −0.33
BRAF expression, RNA-seq result (gene BRAF, hepatocytes): −0.34
BSCL2 expression, RNA-seq result (gene BSCL2, hepatocytes): 0.84
BTD expression, RNA-seq result (gene BTD, hepatocytes): −0.48
C4A expression, RNA-seq result (gene C4A, hepatocytes): 0.4
C9 expression, RNA-seq result (gene C9, hepatocytes): 1.1
C10orf10 expression, RNA-seq result (gene C10orf10, hepatocytes): 1.26
C10orf11 expression, RNA-seq result (gene C10orf11, hepatocytes): −1.44
C15orf41 expression, RNA-seq result (gene C15orf41, hepatocytes): −1.28
CA2 expression, RNA-seq result (gene CA2, hepatocytes): 1.36
CA5A expression, RNA-seq result (gene CA5A, hepatocytes): −0.64
CA12 expression, RNA-seq result (gene CA12, hepatocytes): 0.43
CAV1 expression, RNA-seq result (gene CAV1, hepatocytes): 0.02
CCND1 expression, RNA-seq result (gene CCND1, hepatocytes): 0.26
CD46 expression, RNA-seq result (gene CD46, hepatocytes): 1.34
CD81 expression, RNA-seq result (gene CD81, hepatocytes): 0.46
CD320 expression, RNA-seq result (gene CD320, hepatocytes): −0.9
CDAN1 expression, RNA-seq result (gene CDAN1, hepatocytes): −0.23
CDH1 expression, RNA-seq result (gene CDH1, hepatocytes): −0.12
CEP19 expression, RNA-seq result (gene CEP19, hepatocytes): 0.44
CEP83 expression, RNA-seq result (gene CEP83, hepatocytes): −1.24
CEP164 expression, RNA-seq result (gene CEP164, hepatocytes): 1.34
CEP290 expression, RNA-seq result (gene CEP290, hepatocytes): −1.26
CFB expression, RNA-seq result (gene CFB, hepatocytes): 0.72
CFHR2 expression, RNA-seq result (gene CFHR2, hepatocytes): 1.2
CHRM3 expression, RNA-seq result (gene CHRM3, hepatocytes): −0.08
CIDEC expression, RNA-seq result (gene CIDEC, hepatocytes): −0.39
CLDN1 expression, RNA-seq result (gene CLDN1, hepatocytes): −0.93
COG1 expression, RNA-seq result (gene COG1, hepatocytes): 0.38

CS(=O)(=O)c1cc(F)cc2c3c(n(Cc4ccc(Cl)cc4)c12)[C@@H](CC(=O)O)CC3 [Laropiprant (tredaptive), Laropiprant]
significant changes in gene expression: not observed to cause any significant changes in gene expression
significant modulation of expression of any of the genes analyzed (RNA-seq, hepatocytes): not observed to significantly modulate expression
